What all share (assay type): cell-based
The subject of test [1] is Staphylococcus aureus.
Test [2] concerns Phytophthora infestance. As to conditions: V8 juice medium, 20° C., 50 μg protein spotted.
Test [3] relates to Pyricularia oryzae. As to conditions: 50 μg protein spotted.
Test [4] has as its system Septoria tritici.
The subject of test [5] is Rhizoctonia solani. Kind of test: Anti-filamentous fungal activity, inhibitory circle on agar plate. The conditions noted are these: 1 μl sample spotted, culture 24 hours at 25° C. The procedure:
Rhizoctonia solani microorganisms were cultured in a potato dextrose (PD) medium (Difco) at 25° C. for 5 days, and then their hyphae were cut thin with a homogenizer. From the resulting suspension of thin hyphae, a clump of hyphae was removed, and the hyphae were recovered by centrifugation and adjusted to a density of 10^5 hyphae/ml with PD medium. A PDA medium was added in a solution form to 250 μl hypha suspension to form 5 ml suspension which was then spread on a Petri dish (diameter, 8.4 cm). After the medium was solidified, 1 μl sample for activity evaluation was spotted thereon followed by culture for 24 hours at 25° C., and the size of an inhibitory circle formed around the spot was measured.
The above-described method of evaluating anti-Rhizoctonia solani activity was used to evaluate the activity of the 4 synthetic proteins.

Test [6] deals with Rhizoctonia solani Kuhn.
The test system of test [7] is Escherichia coli.

Bridges are numbered along the chain shown (N, C = ends). Where no end group is shown, it is not given here.

For the substance “SP4080: protein consisting of 36 amino acid residues, SEQ ID NO:7, from Coconut rhinoceros beetle; chemically synthesized with disulfide linkages (ELPKLPDDKVLIRSRSNCPKGKVWNGFDCKSPFAFS; disulfide 18-29 (inferred))”, the Inhibitory circle entry is recorded as “⊚ (key: ⊚: Inhibitory circle of 4 mm or more; ◯: Inhibitory circle of less than 4 mm; X: No activity)” in test [1]; “◯ (Inhibitory circle of less than 4 mm)” in test [2]; “◯ (Inhibitory circle of less than 4 mm)” in test [3]; “◯ (key: ⊚: Inhibitory circle of 4 mm or more; ◯: Inhibitory circle of less than 4 mm; X: No activity)” in test [4]; “⊚ (Inhibitory circle of 4 mm or more)” in test [5]; “⊚ (key: ⊚: Inhibitory circle of 4 mm or more; ◯: Inhibitory circle of less than 4 mm; X: No activity)” in test [6]. In addition, the Inhibitory circle entry in test [7] was “⊚ (key: ⊚: Inhibitory circle of 4 mm or more; ◯: Inhibitory circle of less than 4 mm; X: No activity)”.
As to “SP4523: protein consisting of 40 amino acid residues in total represented by SEQ ID NO:10; chemically synthesized (DAELPKLPDDKVLIRSRSNCPKGKVWNGFDCKSPFAFSKK; Oryctes rhinoceros)”, in test [5], the Inhibitory circle entry is on record as “⊚ (Inhibitory circle of 4 mm or more)”.
For “SP4337: protein consisting of 38 amino acid residues in total represented by SEQ ID NO:9; chemically synthesized (ELPKLPDDKVLIRSRSNCPKGKVWNGFDCKSPFAFSKK; Oryctes rhinoceros)”, the Inhibitory circle entry in test [5] is “⊚ (Inhibitory circle of 4 mm or more)”.
Turning to “SP4266: protein consisting of 38 amino acid residues in total represented by SEQ ID NO:8; chemically synthesized (DAELPKLPDDKVLIRSRSNCPKGKVWNGFDCKSPFAFS; Oryctes rhinoceros)”, the Inhibitory circle result in test [5] is recorded as “⊚ (Inhibitory circle of 4 mm or more)”.

The values above are taken from US7041808B2 (priority 2001, dated 2006).
